# From patent EP0815110B1
# Read-outs that look alike come from different tables or passages of the source.
# Assays:
# Assay type in all cases: biochemical, Ratte
# [1] = biological target: NADH-Ubichinon-1-Reduktase (Rattus norvegicus, UniProt A6K8N6+P03889+Q641Y2); assay: NADH-ubiquinone-1 reductase (complex I) test, spectrophotometric at 340 nm
# Succinat-Dehydrogenase = biological target: T1, Succinat-Dehydrogenase (Rattus norvegicus, UniProt P21913+Q641Z9+Q6PCT8+Q920L2); assay: Succinate dehydrogenase (complex II) activity; conditions: Rattenhirn-Homogenate
# T1 construct: Hemmung des Komplexes I bzw; II der mitochondrialen Atmungskette in Rattenhirn-Homogenaten; from tissue; host or cells: rat brain homogenate
# [2] = test system: Succinat-Cytochrom-c-Reduktase; assay: Succinate-cytochrome-c reductase test (complex II/III), spectrophotometric at 550 nm
# Experimental: Die Isolierung von SMP's aus Rattenleber erfolgte nach (Ragan et al., 1987; Rickwood et al., 1987). • 8.1 Hemmung des Komplexes I der Atmungskette in SMP's durch N-Me-TaClo Komplex I (NADH-Dehydrogenase) der mitochondrialen Atmungskette katalysiert im ersten Schritt eine NADH-Oxidation. Die dabei freiwerdenden Elektronen werden in einem zweiten Schritt auf Coenzym Q bzw. Ubichinon übertragen. Ein typischer Testansatz (modifiziert nach Ragan et al., 1987) enthält dabei 20 mM K-Phosphat Puffer, pH 8.0, 0.2 mM NADH, 1 mM KCN, SMP (ca. 0.3 mg Protein/ml) und +/- 250 µM N-Me-TaClo (25 mM methanolische Stammlösung). Der Start der Reaktion erfolgt durch Zugabe von 50 µM Ubichinon-1. Die Messung der Reaktion erfolgt spektralphotometrisch bei einer Wellenlänge von 340 nm während der linearen Phase. Bei Zugabe von N-Me-TaClo erfolgt eine 100proz. Hemmung der Ubichinon-Reduktion (s.a. Tabelle 1). • 8.2 Hemmung der elektronenübertragenden Reaktionen auf Coenzym Q: NADH-Cytochrom-c-Reduktase und Succinat-Cytochrom-c-Reduktase Coenzym Q wird sowohl durch freiwerdende Elektronen bei der Komplex-I-katalysierten NADH-Oxidation, als auch bei der Komplex-II (Succinat-Coenzym-Q-Reduktase) -katalysierten Reaktion reduziert. Messungen dieser Reaktionswege mit anschließendem Elektronenfluß über den Komplex III bis zur Cytochrom-c-Reduktion lassen sich mittels folgender Tests untersuchen und durch die hier vorgestellten halogenierten β-Carbolinderivate (im folgenden am Beispiel von N-Me-TaClo) hemmen: • NADH-Cytochrom-c-Reduktase-Test (modifiziert nach Sottocasa et al., 1967) Ein typischer Testansatz enthält 25 mM K-Phosphat-Puffer, pH 7.5, 0.2 mM NADH, 0.1 mM Cytochrom-c, 0.5 mM KCN und +/- 250 µM N-Me-TaClo (25 mM methanolische Stammlösung). Die Messung der Reaktion erfolgt spektralphotometrisch bei einer Wellenlänge von 550 nm während der linearen Phase. Bei Zugabe von N-Me-Taclo erfolgt eine 100proz. Hemmung der Reaktion (s.a. Tabelle 1). • - Succinat-Cytochrom-c-Reduktase-Test (modifiziert nach Sottocasa et al., 1967) Ein typischer Testansatz enthält 55 mM K-Phosphat-Puffer, pH 7.5, 3 mM Na-Succinat, 0.1 mM Cytochrom c, +/- 250 µM N-Me-TaClo (25 mM methanolische Stammlösung) und 0.5 mM KCN. Gestartet wird die Reaktion mit SMP (ca. 0.3 mg Protein/ml). Die Messung der Reaktion erfolgt spektralphotometrisch bei einer Wellenlänge von 550 nm während der linearen Phase. Bei Zugabe von N-Me-TaClo erfolgt eine 100proz. Hemmung der Reaktion (s. auch Tabelle 1). • - Einsatz der halogenierten β-Carboline als Hemmstoffe der NADH- bzw. Succinat-gekoppelten Oxidation; Polarographische Messungen der Enzymaktivitäten an SMP's ("submitochondrial particles") Bei der polarographischen Messung wird die Aktivität der Atmungskette in ihrer Gesamtheit ausgehend von der NADH-Oxidation (Komplex I) bzw. […]
# NADH-Oxidase = NADH-Oxidase (Rattus norvegicus, UniProt A6K8N6+P03889+Q641Y2); assay: NADH oxidase activity of complex I of the mitochondrial respiratory chain
# [3] = biological target: NADH-Cytochrom-c-Reduktase (Rattus norvegicus, UniProt A6K8N6+P03889+Q641Y2); assay: NADH-cytochrome-c reductase test (complex I/III), spectrophotometric at 550 nm
# Experimental: Die Isolierung von SMP's aus Rattenleber erfolgte nach (Ragan et al., 1987; Rickwood et al., 1987). • 8.1 Hemmung des Komplexes I der Atmungskette in SMP's durch N-Me-TaClo Komplex I (NADH-Dehydrogenase) der mitochondrialen Atmungskette katalysiert im ersten Schritt eine NADH-Oxidation. Die dabei freiwerdenden Elektronen werden in einem zweiten Schritt auf Coenzym Q bzw. Ubichinon übertragen. Ein typischer Testansatz (modifiziert nach Ragan et al., 1987) enthält dabei 20 mM K-Phosphat Puffer, pH 8.0, 0.2 mM NADH, 1 mM KCN, SMP (ca. 0.3 mg Protein/ml) und +/- 250 µM N-Me-TaClo (25 mM methanolische Stammlösung). Der Start der Reaktion erfolgt durch Zugabe von 50 µM Ubichinon-1. Die Messung der Reaktion erfolgt spektralphotometrisch bei einer Wellenlänge von 340 nm während der linearen Phase. Bei Zugabe von N-Me-TaClo erfolgt eine 100proz. Hemmung der Ubichinon-Reduktion (s.a. Tabelle 1). • 8.2 Hemmung der elektronenübertragenden Reaktionen auf Coenzym Q: NADH-Cytochrom-c-Reduktase und Succinat-Cytochrom-c-Reduktase Coenzym Q wird sowohl durch freiwerdende Elektronen bei der Komplex-I-katalysierten NADH-Oxidation, als auch bei der Komplex-II (Succinat-Coenzym-Q-Reduktase) -katalysierten Reaktion reduziert. Messungen dieser Reaktionswege mit anschließendem Elektronenfluß über den Komplex III bis zur Cytochrom-c-Reduktion lassen sich mittels folgender Tests untersuchen und durch die hier vorgestellten halogenierten β-Carbolinderivate (im folgenden am Beispiel von N-Me-TaClo) hemmen: • NADH-Cytochrom-c-Reduktase-Test (modifiziert nach Sottocasa et al., 1967) Ein typischer Testansatz enthält 25 mM K-Phosphat-Puffer, pH 7.5, 0.2 mM NADH, 0.1 mM Cytochrom-c, 0.5 mM KCN und +/- 250 µM N-Me-TaClo (25 mM methanolische Stammlösung). Die Messung der Reaktion erfolgt spektralphotometrisch bei einer Wellenlänge von 550 nm während der linearen Phase. Bei Zugabe von N-Me-Taclo erfolgt eine 100proz. Hemmung der Reaktion (s.a. Tabelle 1). • - Succinat-Cytochrom-c-Reduktase-Test (modifiziert nach Sottocasa et al., 1967) Ein typischer Testansatz enthält 55 mM K-Phosphat-Puffer, pH 7.5, 3 mM Na-Succinat, 0.1 mM Cytochrom c, +/- 250 µM N-Me-TaClo (25 mM methanolische Stammlösung) und 0.5 mM KCN. Gestartet wird die Reaktion mit SMP (ca. 0.3 mg Protein/ml). Die Messung der Reaktion erfolgt spektralphotometrisch bei einer Wellenlänge von 550 nm während der linearen Phase. Bei Zugabe von N-Me-TaClo erfolgt eine 100proz. Hemmung der Reaktion (s. auch Tabelle 1). • - Einsatz der halogenierten β-Carboline als Hemmstoffe der NADH- bzw. Succinat-gekoppelten Oxidation; Polarographische Messungen der Enzymaktivitäten an SMP's ("submitochondrial particles") Bei der polarographischen Messung wird die Aktivität der Atmungskette in ihrer Gesamtheit ausgehend von der NADH-Oxidation (Komplex I) bzw. Succinat-Oxidation (Komplex II) bis zur O2-Reduktion (Komplex IV) bestimmt. Als Maß der Aktivität wird der O2-Verbrauch bestimmt. Der Test wird unter Verwendung einer Clark-Sauerstoffelektrode (Rank Brothers, England) bei 30°C in 2 ml Puffer (50 mM K-Phosphat, pH 7.4, 250 mM Saccharose) und 0.15 mg SMP-Protein/ml durchgeführt. Nach 5 minütiger Vorinkubation ± Inhibitor wird die Messung mit NADH (Endkonzentration 0.28 mM) bzw. Succinat (Endkonzentration 20 mM) gestartet. Bei der Succinat-gekoppelten Oxidation werden die SMP's vorher nach Krueger et al., (1993) mit Malonat aktiviert.
# Cytochrom c Oxidase = Cytochrom c Oxidase (Rattus norvegicus, UniProt P00406+P05503); assay: Cytochrome c oxidase (complex IV) activity; conditions: 500 µM TaClo, Rattenhirn-Homogenate
# [4] = bei 500 µmol, Rattenhirn-Homogenate, read-out: Komplex-I-Hemmung Inhibierungsrate (in %) bei gegebener Konzentration (in µmol)
# [5] = bei 500 µmol, read-out: Komplex-II-Hemmung Inhibierungsrate (in %) bei gegebener Konzentration (in µmol)
# [6] = bei 250 µmol, read-out: Komplex-II-Hemmung Inhibierungsrate (in %) bei gegebener Konzentration (in µmol)
# [7] = read-out: Inhibierungsrate durch TaClo
# Chain of NADH-Cytochrom-c-Reduktase (Q641Y2 34-463): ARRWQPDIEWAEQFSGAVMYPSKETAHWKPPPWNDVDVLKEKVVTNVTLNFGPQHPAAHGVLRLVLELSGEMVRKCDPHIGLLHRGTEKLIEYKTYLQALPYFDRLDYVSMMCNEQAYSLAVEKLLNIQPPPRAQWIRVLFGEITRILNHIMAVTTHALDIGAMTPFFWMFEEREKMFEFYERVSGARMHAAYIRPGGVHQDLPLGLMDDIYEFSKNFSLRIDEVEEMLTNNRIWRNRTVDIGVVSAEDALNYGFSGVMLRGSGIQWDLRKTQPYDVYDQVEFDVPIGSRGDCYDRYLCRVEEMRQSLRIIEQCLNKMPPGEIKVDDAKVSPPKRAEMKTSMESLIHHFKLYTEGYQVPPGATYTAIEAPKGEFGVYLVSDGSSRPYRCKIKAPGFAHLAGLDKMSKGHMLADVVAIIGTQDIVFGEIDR
# Chain of NADH-Cytochrom-c-Reduktase (P03889 whole entry): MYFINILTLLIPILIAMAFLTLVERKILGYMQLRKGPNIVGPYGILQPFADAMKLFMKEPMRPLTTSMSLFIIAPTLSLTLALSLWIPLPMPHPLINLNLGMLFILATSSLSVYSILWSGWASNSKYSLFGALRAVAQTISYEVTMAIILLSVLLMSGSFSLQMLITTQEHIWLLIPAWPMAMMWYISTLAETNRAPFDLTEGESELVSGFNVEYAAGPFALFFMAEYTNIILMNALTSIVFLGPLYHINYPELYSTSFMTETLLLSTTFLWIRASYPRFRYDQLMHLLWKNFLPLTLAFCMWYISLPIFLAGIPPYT
# Chain of NADH-Cytochrom-c-Reduktase (A6K8N6 entry or part of it): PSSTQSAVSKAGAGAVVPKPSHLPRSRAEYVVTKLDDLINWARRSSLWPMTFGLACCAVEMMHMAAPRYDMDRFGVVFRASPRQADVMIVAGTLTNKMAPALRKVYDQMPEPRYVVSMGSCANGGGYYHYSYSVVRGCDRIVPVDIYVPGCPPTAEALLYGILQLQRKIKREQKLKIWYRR
# T1 sequence (Q920L2 35-656): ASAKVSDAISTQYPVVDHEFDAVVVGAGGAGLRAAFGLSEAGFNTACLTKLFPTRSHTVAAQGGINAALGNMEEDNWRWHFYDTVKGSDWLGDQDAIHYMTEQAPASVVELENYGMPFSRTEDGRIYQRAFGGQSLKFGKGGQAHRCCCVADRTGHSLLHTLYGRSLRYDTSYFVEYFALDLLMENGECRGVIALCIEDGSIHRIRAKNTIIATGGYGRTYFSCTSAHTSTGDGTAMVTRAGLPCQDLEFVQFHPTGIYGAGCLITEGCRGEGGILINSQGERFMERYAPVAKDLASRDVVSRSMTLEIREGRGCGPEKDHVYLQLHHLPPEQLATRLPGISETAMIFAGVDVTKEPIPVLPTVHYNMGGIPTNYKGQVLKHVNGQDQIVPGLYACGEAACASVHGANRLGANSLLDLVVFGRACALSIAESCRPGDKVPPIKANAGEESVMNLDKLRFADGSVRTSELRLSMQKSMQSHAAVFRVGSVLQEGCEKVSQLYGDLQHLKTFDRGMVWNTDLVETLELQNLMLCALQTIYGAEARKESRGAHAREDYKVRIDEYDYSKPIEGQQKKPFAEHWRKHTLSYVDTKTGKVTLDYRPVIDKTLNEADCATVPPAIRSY
# T1 sequence (P21913 31-282): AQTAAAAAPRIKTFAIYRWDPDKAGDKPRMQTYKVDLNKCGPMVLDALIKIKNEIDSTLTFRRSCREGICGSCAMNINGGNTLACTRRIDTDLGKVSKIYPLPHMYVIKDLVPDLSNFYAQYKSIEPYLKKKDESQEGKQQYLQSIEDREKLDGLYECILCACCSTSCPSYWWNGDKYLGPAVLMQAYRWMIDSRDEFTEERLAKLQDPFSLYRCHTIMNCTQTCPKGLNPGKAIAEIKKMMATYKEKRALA
# T1 sequence (Q641Z9 1-169): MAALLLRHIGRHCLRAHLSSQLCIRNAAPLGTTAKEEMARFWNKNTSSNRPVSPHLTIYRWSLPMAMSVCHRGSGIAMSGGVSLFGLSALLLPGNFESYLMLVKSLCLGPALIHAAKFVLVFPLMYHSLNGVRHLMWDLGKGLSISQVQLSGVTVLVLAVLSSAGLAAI
# T1 sequence (Q6PCT8 57-159): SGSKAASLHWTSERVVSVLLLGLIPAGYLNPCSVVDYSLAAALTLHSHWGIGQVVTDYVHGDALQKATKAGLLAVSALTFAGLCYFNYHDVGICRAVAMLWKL
# Chain of NADH-Ubichinon-1-Reduktase (P03889 whole entry): as the sequence (P03889 whole entry) above
# Chain of NADH-Ubichinon-1-Reduktase (Q641Y2 34-463): as the sequence (Q641Y2 34-463) above
# Chain of NADH-Ubichinon-1-Reduktase (A6K8N6 entry or part of it): as the sequence (A6K8N6 entry or part of it) above
structure (smiles),measurement,setting,value
CC(=O)N1CCc2c([nH]c3ccccc23)C1C(Cl)(Cl)Cl (racemic) [N-Acetyl-TaClo],inhibition at 500 µM,[1]; [4],20%
C=CCN1CCc2c([nH]c3ccccc23)C1C(Cl)(Cl)Cl (racemic) [N-Allyl-TaClo],inhibition at 500 µM,Succinat-Dehydrogenase; [5],≥ 100%
ClC(Cl)(Cl)C1c2[nH]c3ccccc3c2CCN1Cc1ccccc1 (racemic) [N-Bzl-TaClo],inhibition at 250 µM,Succinat-Dehydrogenase; [6],55%
CCN1CCc2c([nH]c3ccccc23)C1C(Cl)(Cl)Cl (racemic) [N-Ethyl-TaClo],inhibition at 500 µM,Succinat-Dehydrogenase; [5],75%
O=CN1CCc2c([nH]c3ccccc23)C1C(Br)(Br)Br (racemic) [N-Formyl-TaBro],inhibition at 500 µM,[1]; [4],83%
CN1CCc2c([nH]c3ccccc23)C1C(Cl)(Cl)Cl (racemic) [N-Me-TaClo],Hemmung der Reaktion (Succinat-Cytochrom-c-Reduktase-Test),"[2]; 250 µM N-Me-TaClo, SMP's aus Rattenleber",100 proz.
same,Inhibierung bei 250 µM N-Me-TaClo,"[2]; Succinat-Cytochrom-c-Reduktase, 250 µM, Rattenhirn-Homogenate",80%
same,inhibition at 250 µM,"[1]; 250 µM N-Me-TaClo, SMP's aus Rattenleber, read-out: Hemmung der Ubichinon-Reduktion",100%
same,inhibition at 250 µM,"[1]; NADH-Ubichinon-1-Reduktase, 250 µM, Rattenhirn-Homogenate, read-out: Inhibierung bei 250 µM N-Me-TaClo",100%
same,inhibition at 250 µM,"Succinat-Dehydrogenase; Succinat-Dehydrogenase, 250 µM, read-out: Inhibierung bei 250 µM N-Me-TaClo",100%
same,inhibition at 250 µM,Succinat-Dehydrogenase; [6],≥ 100%
same,inhibition at 250 µM,"NADH-Oxidase; NADH-Oxidase, 250 µM, Rattenhirn-Homogenate, read-out: Inhibierung bei 250 µM N-Me-TaClo",0%
same,inhibition at 250 µM,"[3]; 250 µM N-Me-TaClo, SMP's aus Rattenleber, read-out: Hemmung der Reaktion (NADH-Cytochrom-c-Reduktase-Test)",100%
same,inhibition at 250 µM,"[3]; NADH-Cytochrom-c-Reduktase, 250 µM, Rattenhirn-Homogenate, read-out: Inhibierung bei 250 µM N-Me-TaClo",70%
O=C(CCl)N1CCc2c([nH]c3ccccc23)C1C(Cl)(Cl)Cl (racemic) [N-Monochloracetyl-TaClo],inhibition at 500 µM,[1]; [4],95%
O=C(N1CCc2c([nH]c3ccccc23)C1C(Cl)(Cl)Cl)C(Cl)(Cl)Cl (racemic) [N-Trichloracetyl-TaClo],inhibition at 500 µM,[1]; [4],90%
"ClC(Cl)(Cl)C1NCCc2c1[nH]c1ccccc21 (racemic) [TaClo, 1-Trichlormethyl-1,2,3,4-tetrahydro-β-carbolin]",Enzymaktivität (nmol/min/mg Protein),Cytochrom c Oxidase; Kontrolle 45.8,38.9 nmol/min/mg Protein
same,inhibition at 500 µM,Cytochrom c Oxidase; [7],20%
same,Inhibierungsrate durch TaClo,"[2]; Succinat Cyt c Reduktase, 500 µM TaClo, Rattenhirn-Homogenate",22%
same,Enzymaktivität (nmol/min/mg Protein),"[2]; Succinat Cyt c Reduktase, 500 µM TaClo, Rattenhirn-Homogenate, Kontrolle 11.9",9.2 nmol/min/mg Protein
same,Enzymaktivität (nmol/min/mg Protein),"[1]; NADH CoQ1 Reduktase, 500 µM TaClo, Rattenhirn-Homogenate, Kontrolle 10.9",1.6 nmol/min/mg Protein
same,inhibition at 500 µM,[1]; [7],85%
same,Enzymaktivität (nmol/min/mg Protein),"Succinat-Dehydrogenase; Succinat Dehydrogenase, 500 µM TaClo, Kontrolle 29.6",30.1 nmol/min/mg Protein
same,inhibition at 500 µM,"Succinat-Dehydrogenase; Succinat Dehydrogenase, 500 µM TaClo, read-out: Inhibierungsrate durch TaClo",0%
same,inhibition at 500 µM,Succinat-Dehydrogenase; [5],30%
same,Enzymaktivität (nmol/min/mg Protein),"NADH-Oxidase; NADH-Oxidase, 500 µM TaClo, Rattenhirn-Homogenate, Kontrolle 141.0",138.0 nmol/min/mg Protein
same,inhibition at 500 µM,NADH-Oxidase; [7],0%
same,Einfluß auf die NADH-Oxidation,"NADH-Oxidase; result in words, s. Tabelle 2",beeinflußt jedoch nicht die NADH-Oxidation
same,Enzymaktivität (nmol/min/mg Protein),"[3]; NADH Cyt c Reduktase, 500 µM TaClo, Rattenhirn-Homogenate, Kontrolle 24.6",14.7 nmol/min/mg Protein
same,inhibition at 500 µM,[3]; [7],40%
COC(=O)[C@@H]1Cc2c([nH]c3ccccc23)C(C(Cl)(Cl)Cl)N1 (stereo partly shown) [3-COOMe-TaClo],inhibition at 500 µM,Succinat-Dehydrogenase; [5],75%
"FC(F)(F)C1=NCCc2c1[nH]c1ccccc21 [DDH-TaFlu, 1-Trifluormethyl-3,4-didehydro-β-carbolin]",inhibition at 250 µM,Succinat-Dehydrogenase; [6],20%
ClC(Cl)=C1NCCc2c1[nH]c1ccccc21 [Dichlormethylen-TaClo],inhibition at 250 µM,Succinat-Dehydrogenase; [6],40%
COC(=O)C1Cc2c([nH]c3ccccc23)C(C(Cl)(Cl)Cl)N1Cc1ccccc1 (stereo not shown) [N-Bzl-3-COOMe-TaClo],inhibition at 500 µM,Succinat-Dehydrogenase; [5],60%
O=CN1CCc2c([nH]c3ccccc23)C1=C(Br)Br [N-Formyl-dibrommethylen-TaBro],inhibition at 500 µM,[1]; [4],≥ 100%
"C=C(C)[C@H]1Cc2c(ccc3c2O[C@@H]2COc4cc(OC)c(OC)cc4[C@@H]2C3=O)O1 [Rotenon, reference compound]",Enzymaktivität (nmol/min/mg Protein),[1],4.2 nmol/min/mg Protein
same,Enzymaktivität (nmol/min/mg Protein),[3],5.7 nmol/min/mg Protein
